US20240082218A1, “PHARMACEUTICAL COMBINATIONS COMPRISING A KRAS G12C INHIBITOR AND USES OF A KRAS G12C INHIBITOR FOR THE TREATMENT OF CANCERS” (priority 2020, published 2024)
“Also recorded” adds a separate entry of the source. Where two headings read alike, the source gives them in different places.

Key:
NCI-H2030 xenograft = test: Anti-tumor activity in NCI-H2030 xenografts; type: in vivo, mice; conditions: 10, 30 and 100 mg/kg oral daily
[1] = Oral exposure and tolerability in mouse
4-week toxicity study = type: in vivo; conditions: rat
[2] = test system: advanced solid tumors harboring the KRAS G12C mutation; conditions: patients; preliminary data, trial ongoing
Procedure: The study is conducted in adult patients with advanced solid tumors who harbor the KRAS G12C mutation. In expansion, advanced (metastatic or unresectable) non-small cell lung cancer patients who harbor the KRAS G12C mutation and who are in the second or third line treatment setting will be enrolled.
In particular, it may be administered at a total daily dose of 400 mg, administered once daily or twice daily. It may also be administered at a total daily dose of 200 mg, administered once daily or twice daily.
It may also be administered at a total daily dose of 600 mg, administered once or twice daily.
TNO155 is administered p.o. QD or BID in a 2 week on/1 week off schedule or continuously.
TNO155 may be administered at a total daily dose ranging from 10 to 80 mg, or from 10 to 60 mg. For example, the total daily dose of TNO155 may be selected from 10, 15, 20, 30, 40, 60 and 80 mg. For example, TNO may be dosed at a total daily dose of 10, 15, 20 or 30 mg.
The total daily dose of TNO155 may be administered continuously, QD (once a day) or BID (twice a day) on QD or BID on a 2 weeks on/l week off schedule. The total daily dose of TNO155 may be administered continuously, QD (once a day) or BID (twice a day) on QD or BID on continuously (i.e. without a drug holiday). […]

[3] = test system: NCI-H2122 (KRASG12C lung) xenograft; type: in vivo, mice
KRAS WT = KRAS WT (Homo sapiens, UniProt P01116); test: cRAF recruitment 6 h cellular assay; type: cell-based
[4] = test system: KRAS G12C-mutated colorectal cancer PDX models; test: KRAS G12C-mutated patient-derived xenograft (PDX) models of human colorectal cancer; type: in vivo, mice; conditions: oral; Compound A 100 mg/kg daily alone or with TNO155 10 mg/kg twice daily; one animal per PDX model
Procedure: Female nude mice were implanted subcutaneously with tumor fragments from each PDX model. Individual mice were assigned to treatment groups for dosing once their tumor volume reached 200-250 mm^3. One animal per PDX model was assigned to each treatment arm. […] The end of study per model was defined as minimum of 28 days treatment, or duration for untreated tumor to reach 1500 mm^3, or duration for two doublings of untreated tumor, whichever was slower. Tumor volumes were recorded and are represented as % tumor volume change f SEM for each group.

H358 cancer cells = test: Antiproliferation in H358 cancer cells; type: cell-based; conditions: Homo sapiens, NCI-H358
HCC44 xenograft = test: Anti-tumor activity in HCC44 xenografts; type: in vivo, mice; conditions: 10, 30 and 100 mg/kg oral daily
KRASG12C [5] = biological target: T1, KRASG12C (Homo sapiens, UniProt P01116, G12C); test: Cellular target occupancy 6 h; type: cell-based
KRASG12C [6] = biological target: T1, KRASG12C; test: In vivo KRASG12C target occupancy in MIA PaCa-2 xenografts; design: endogenous in cells; host or cells: MIA PaCa-2 tumour xenografts in mice
Procedure: KRASG12C inhibition can be assessed by measuring free KRASG12C levels (target occupancy) and other biomarkers in the MAPK signaling pathway, such as decreased levels of phosphorylated ERK1/2 (pERK) and downregulation of DUSP6 mRNA transcript. […] In the less sensitive NCI-H2122 xenografts, orally administered JDQ443 (100 mg/kg QD) achieved approximately 80% KRASG12C inhibition and 90% decrease in DUSP6 mRNA transcript, causing stasis which is the maximum response in this model upon MAPK pathway inhibition.

[7] = test system: Lu99 KRAS G12C lung carcinoma xenograft; test: Anti-tumor efficacy in Lu99 KRAS G12C lung carcinoma xenografts; type: in vivo, mice
Procedure: It carries the allele NM_033360.4(KRAS):c.34G>T and consequently a heterozygous KRAS Gly12Cys mutation. Lu99 cells were grown in sterile conditions in a 37° C. incubator with 5% CO2 for two weeks. The cells were kept in RPMI media supplemented with 10% FCS, 2 mM L-Glutamin, 1 mM sodium pyruvate and 10 mM HEPES, and split 1:6 every 3 days. […] On the day of injection, cells were harvested after 8 passages in total, including passages from the vendor. Cells were resuspended in 50% HBSS and 50% Matrigel at a final concentration of 10·10^6 cells/ml.
Experiments were performed with female nude mice (Charles River Laboratories, Crl:NU(NCr)-Foxn1nu Homozygous). […] Animals were allowed to accommodate at least for 7 days.
Mice were injected subcutaneously with Lu99 human NSCLC cells to induce xenograft tumors and randomized into treatment groups when the mean tumor volume reached ˜250 mm^3.
The control group received a solution of 0.1% Tween 80 (Fisher Scientific AG #BP338-500) and 0.5% Methylcellulose in water.
The treatment period was between 9 to 28 days, depending on the groups.
Tumor growth was monitored regularly post cell inoculation and animals were randomized into treatment groups (n=6) when TV reached appropriate volume. During the treatment period, xenograft tumor sizes were measured about 2-3 times per week manually with calipers, and the TV was estimated in mm^3 using the formula: Length×Width^2/2.
Mice were injected subcutaneously with Lu99 human NSCLC cells to induce xenograft tumors and randomized into treatment groups when the mean tumor volume reached ˜200 mm^3. […] The treatment period was between 14 to 35 days, depending on the groups. Animals treated with vehicle were terminated at day 14. […] Tumor volumes were recorded and are represented as mean±SEM (standard error of the mean) for each group. Anti-tumor response of treatment groups vs. vehicle group was calculated at day 14 as % T/C or % regression.

[8] = Oral exposure and tolerability in dog
[9] = test system: Ba/F3 cells expressing FLAG-KRAS G12C/R68S; test: Ba/F3 3-day proliferation, Cell titer glo (Example 12); type: cell-based, murine; conditions: Mus musculus
Procedure: (§1) The parental Ba/F3 cells were cultured in the presence of 5 ng/ml of recombinant murine IL-3 (Life Technologies, #PMC0035).
(§2) The mutant plasmids were transfected into the Ba/F3 WT cells by electroporation with the NEON transfection kit (Invitrogen, #MPK10025).
(§3) Ba/F3 cells are normally dependent on IL-3 to survive and proliferate, however, by expressing oncogenes they are able to switch their dependency from IL-3 to the expressed oncogene. […] Cell number and viability was measured every three days and after seven days the IL-3 withdrawal was completed.
(§4) Treatment was performed on the same day with a Tecan D300e drug dispenser. Viability was detected on the same day of treatment for the start plate (Day 0) and three days post-treatment (Day 3) using the CellTiter-Glo Luminescent Cell Viability Assay (Promega, #G7573) on a Tecan infinitiy M200 Pro reader (Intergration Time 1000 ms).
(§5) To determine the growth, the three days post-treatment (Day 3) readout was normalized to start plate (Day 0). The percentage viability was then calculated by normalizing treated wells to DMSO treated control samples. XLfit was used to make the fitted curve with a Sigmoidal Dose-Response Model (four-parameter curve) (FIG. 7).

[10] = test system: Ba/F3 cells expressing FLAG-KRAS G12C/H95R; test: as above; type: cell-based, murine; conditions: Mus musculus
Procedure: as §1, §2, §3, §4, §5

[11] = test system: Ba/F3 cells expressing FLAG-KRAS G12C/Y96D; test: as above; type: cell-based, murine; conditions: Mus musculus
Procedure: as §1, §2, §3, §4, §5

[12] = test system: Ba/F3 cells expressing FLAG-KRAS G12C/Y96C; test: as above; type: cell-based, murine; conditions: Mus musculus
Procedure: as §1, §2, §3, §4, §5

HRAS WT = HRAS WT (Homo sapiens, UniProt P01112); test: cRAF recruitment 6 h cellular assay; type: cell-based
[13] = Oral exposure and tolerability in rat
[14] = BaF3, 72 h, 3 days, 4 independent experiments, read-out: GI50 ± St DV

Sequence of HRAS WT (P01112 whole entry): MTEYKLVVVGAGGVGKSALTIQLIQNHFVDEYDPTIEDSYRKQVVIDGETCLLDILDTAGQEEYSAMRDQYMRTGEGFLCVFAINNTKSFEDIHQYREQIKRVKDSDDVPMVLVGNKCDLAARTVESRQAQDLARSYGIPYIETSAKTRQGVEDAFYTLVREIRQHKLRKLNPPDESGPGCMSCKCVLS

Structure (SMILES): C=CC(=O)N1CC2(CC(n3nc(-c4ccc5c(cnn5C)c4)c(-c4c(Cl)c(C)cc5[nH]ncc45)c3C)C2)C1 (single isomer, unassigned) [Compound A, 1-{6-[(4M)-4-(5-Chloro-6-methyl-1H-indazol-4-yl)-5-methyl-3-(1-methyl-1H-indazol-5-yl)-1H-pyrazol-1-yl]-2-azaspiro[3.3]heptan-2-yl}prop-2-en-1-one]
- pattern of maximal response (NCI-H2030 xenograft): moderate tumor growth inhibition
- oral bioavailability [1]: orally bioavailable
- tolerability [1]: well-tolerated
- tolerability in 4-week toxicity study (4-week toxicity study): well tolerated
- clinical efficacy [2]: early signs of clinical efficacy
- clinical safety and tolerability [2]: acceptable safety and tolerability profile
- anti-tumor activity ([3]; 10 mg/kg daily oral): weak tumor-growth inhibition
- anti-tumor activity ([3]; 30 mg/kg daily oral): moderate tumor-growth inhibition; also recorded: slightly less than tumor stasis
- anti-tumor activity ([3]; 50 mg/kg twice daily oral): approximate tumor stasis
- anti-tumor activity ([3]; 100 mg/kg daily oral): approximate tumor stasis
- anti-tumor activity ([3]; 100 mg/kg daily oral, listed as JDQ443): stasis
- pattern of maximal response ([3]; 10, 30 and 100 mg/kg oral daily): stasis-like
- EC50 (KRAS WT): > 10000 nM
- tumor response in CRC PDX models [4]: regression of one PDX model and to a slight to moderate tumor growth delay in some PDX models
- GI50 (H358 cancer cells): 30 nM
- pattern of maximal response (HCC44 xenograft): stasis-like
- EC50 (KRASG12C [5]): 30 nM
- inhibition at 30 mg/kg (KRASG12C [6]; MIA PaCa-2 xenografts, 30 mg/kg QD oral): ~90%
- KRASG12C TO t1/2 (KRASG12C [6]; in vivo, MiaPaCa2 model): ~66 h
- pattern of maximal response ([7]; LU99, 10, 30 and 100 mg/kg oral daily): regression
- anti-tumor response (Example 7) ([7]; Lu99, oral, Compound A 100 mg/kg once daily, TNO155 10 mg/kg twice daily continuous, alone or in combination): tumor regression for approximately two weeks
- anti-tumor response (Example 6) ([7]; Lu99, oral, Compound A 100 mg/kg once daily, TNO155 10 mg/kg twice daily, alone or in combination, up to 28 days): tumor regression for three weeks
- oral bioavailability [8]: orally bioavailable
- tolerability [8]: well-tolerated
- GI50 [9, 14]: > 1000 nM
- GI50 ([9]; BaF3, read-out: GI50): > 1000 nM
- GI50 [10, 14]: 24 ± 6 nM
- GI50 ([10]; BaF3, read-out: GI50): 24 ± 6 nM
- GI50 [11, 14]: > 1000 nM
- GI50 ([11]; BaF3, read-out: GI50): > 1000 nM
- GI50 [12, 14]: > 1000 nM
- GI50 ([12]; BaF3, read-out: GI50): > 1000 nM
- EC50 (HRAS WT): > 10000 nM
- oral bioavailability [13]: orally bioavailable
- tolerability [13]: well-tolerated
